Several values for one entry are separate records, joined by “and”; a condition that tells them apart may be missing. Equal values may be shown once.
What was measured:
[1] = test system: EMT6 murine mastocytoma in vitro; assay: Photosensitizing potential: LD50 for a fixed dose of light; format: cell-based
[2] = test system: EMT6 murine mastocytoma in vitro; assay: Sonosensitizing potential: LD50 for a fixed dose of ultrasound; format: cell-based
[3] = test system: Human acute promyelocytic leukemia HL-60 cells; assay: Sonodynamic therapy survival assay, screening of sonosensitizers in vitro; format: cell-based; conditions: for Mean - DMSO Bg: mean survival relative to DMSO only (100.0); for Survival, % Mean / Survival, %: insonated HL-60 cells; for Survival, %: single determinations
Description: This screening assay makes use of human promyelocytic leukemia cells growing in suspension culture. The transducer of an UltraMax ultrasound generator for physiotherapy was adapted for in vitro studies by fitting a tissue culture-compatible Teflon cuff such that cell suspensions could be conveniently insonated. The following diagrams represent the equipment employed.
Human acute promyelocytic leukemia HL-60 cells (ATCC No CCL-240) were maintained in RPMI 1640 cell culture medium supplemented with 7 g/L of L-glutamine (Gibco, Grand Island N.Y.), 10% fetal bovine serum (Cansera), and 1% penicillin-streptomycin-neomycin (Gibco), buffered with NaHCO3 to pH 7.4. They were incubated at 37° C. in a humidified atmosphere of 95% air, 5% CO2, and maintained at cell densities between 2.0×10^5 to 1.0×10^6 cells/mL. For insonations in the presence of Hp (a porphyrin positive control) or hypocrellin test compounds, cells were brought to approximately 1.0×10^6 cells/mL, incubated with the putative sensitizer at 37° C. for 2 hours in T-flasks, equilibrated for 30 minutes at room temperature, resuspended and insonated. All procedures took place in low-light conditions to avoid spurious photosensitization. Cells were gently resuspended for 10 seconds before insonation. […] Stock sensitizer was prepared by slowly adding RPMI-1640 medium to the appropriate volume at final sensitizer concentrations between 0.3 mM and 1 mM.
Aliquots of cells were withdrawn prior to insonation to serve as the original value for cell survival. Cells were suspended in Isoton diluent and counted in a Coulter electronic particle counter. Insonation proceeded at a power density of 2 W, at times varying between 3- and 10 seconds to effect cytotoxicity by sonosensitization. Control cultures were subjected to the appropriate dose of ultrasound, in the presence of DMSO, and the absence of the test sonosensitizer. Following ultrasound treatment, aliquots of the cell suspension were withdrawn for counting as above, and the survival fraction, S, was calculated as the fraction: S=(Cell number following insonation/cell number prior to insonation)×100. Results:
HL-60 cells were treated with perylenequinone sensitizers and insonated as described above. The surviving fractions were plotted against sensitizer concentration. […] Cell survival decreased steeply over the next two decades of sensitizer concentration.

[4] = test system: syngeneic murine mastocytoma, EMT6; assay: Efficiency of DMHB in vivo: SDT of EMT6 tumors in Balb/c mice; conditions: Balb/c mice with EMT6 flank tumors, DMHB i.p. 50 μM total body concentration, ultrasound 1 MHz 0.2 W/cm^2 10 min after 48 h; FIG. 2
Procedure: We explored the use of DMHB in Balb/c mice engrafted in the flank with the syngeneic murine mastocytoma, EMT6. The mice were inoculated subcutaneously with 1.0×10^5 EMT6 tumor cells in sterile injectable saline. Within 7 days, detectable tumors are evident. Mice were randomized into a control group and a SDT treatment group, which differed only in that the sonosensitizer was not present in the drug solvent (see below). Fresh DMHB was dissolved in mineral oil, and injected intraperitoneally into each mouse to achieve a total body concentration of 50 μM. Following a an interval of 48 h for biodistribution of the sensitizer, the mice were lightly anesthetized with Metafane, and placed on a 2% agarose gel, with the tumor lying in a depression of the gel which was juxtaposed to the transducer of an UltraMax physiotherapy ultrasound generator. Ultrasound was applied at a frequency of 1 MHz, at a power density of 0.2 W/cm^2, for a 10-minute period. The maximum energy applied to the tumor volume was approximately 500 J. Tumor growth was monitored daily by caliper measurements in three mutually orthogonal planes. Tumor volume was calculated from the expression, V=π/6×d1×d2×d3 where V=volume (mm^3), and d1,2, and 3 are the three mutually orthogonal diameters. The endpoint for the assay was the proportion of tumors reaching 4 times treatment volume, which was plotted as a function of time. […]

[5] = HL-60 cells, fixed dose and energy of ultrasound

## COc1c2c3c4c(c(OC)c(=O)c5c(O)cc(OC)c(c6c(OC)cc(O)c(c1=O)c63)c54)[C@@H](C(C)=O)[C@@](C)(O)C2 [HA, Hypocrellin A, reference compound]
[1]
  Photosensitizing Potential (Molar Concentration which exerts LD50): 4.0 µM
[2]
  Sonosensitizing Potential (Molar Concentration which exerts LD50): None

## Demethylated-HB [DMHBa]
[1]
  Photosensitizing Potential (Molar Concentration which exerts LD50): 3.0 µM
[2]
  Sonosensitizing Potential (Molar Concentration which exerts LD50): 1.0 mM

## CCCCNc1c2c3c4c(c(OC)c(=O)c5c(O)cc(OC)c(c6c(OC)cc(O)c(c1=O)c63)c54)CC(C)=C2C(C)=O [DMHBb, 2-butylamino-2-demethoxy-Hypocrellin B]
[1]
  Photosensitizing Potential (Molar Concentration which exerts LD50): 0.1 µM
[2]
  Sonosensitizing Potential (Molar Concentration which exerts LD50): 0.1 mM

## 2-(N,N-dimethyl-amino) propylamine-Hypocrellin B [HBDD-R1]
[2]
  Sonosensitizing Potential (Molar Concentration which exerts LD50): 1.0 mM

## demethoxy hypocrellin B [DMHB]
[3]; HL-60 cells
  maximum sonotoxic effect compared with Hp control: comparable to that of the Hp control
[3]; [5]
  LD50: approximately 100 μM
  difference of LD50 versus hematoporphyrin (Hp) control: 10 fold
[3]; HL-60 cells, up to 100 μM
  sonotoxicity: negligible sonotoxicity
[3]; 1 μM DMHB
  Mean - DMSO Bg: 83.0%
[3]; 10 μM DMHB
  Mean - DMSO Bg: 71.1%
[3]; 100 μM DMHB
  Mean - DMSO Bg: 63.2%
[3]; DMSO + 1 μM DMHB
  Survival, % Mean: 41.1%
  Survival, %: 41.8% and 48.2% and 33.5%
[3]; DMSO + 10 μM DMHB
  Survival, % Mean: 35.2%
  Survival, %: 37.3% and 43.3% and 24.9%
[3]; DMSO + 100 μM DMHB
  Survival, % Mean: 31.3%
  Survival, %: 30.7% and 39.4% and 23.7%
[4]
  tumor growth: tumor growth is inhibited

## 2-morpholino-ethylaminated HB [HBAM-R1]
[1]
  Photosensitizing Potential (Molar Concentration which exerts LD50): 4.0 µM
[2]
  Sonosensitizing Potential (Molar Concentration which exerts LD50): None

## CC1=C(CCC(=O)O)c2cc3[nH]c(cc4nc(cc5[nH]c(cc1n2)c(C)c5C(C)O)C(C)=C4C(C)O)c(C)c3CCC(=O)O (stereo not shown) [Hp, hematoporphyrin, reference compound]
[3]; [5]
  LD50: 1.0 mM

## Methylamine-Hypocrellin B [HBMA-IV]
[1]
  Photosensitizing Potential (Molar Concentration which exerts LD50): 1.0 µM
[2]
  Sonosensitizing Potential (Molar Concentration which exerts LD50): None

## Ethylenediamne-Hypocrellin B [HBED-R2]
[1]
  Photosensitizing Potential (Molar Concentration which exerts LD50): 4.0 µM
[2]
  Sonosensitizing Potential (Molar Concentration which exerts LD50): None
